From patent US20120101132A1, “New Substituted Oxindole Derivative” (priority 2008, published 2012)

Target: T1, recombinant human GSK3β (Homo sapiens, UniProt P49841)
T1 construct: purchased Dundee University, UK
Assay: GSK3β Scintillation Proximity Assay (ATP competition)
Type: biochemical
Details: ATP 1 μM; Km of ATP for GSK3β 20 μM; peptide substrate 1 μM
Method: Determination of ATP Competition in Scintillation Proximity GSK3β Assay.
GSK3β Scintillation Proximity Assay.
The competition experiments were carried out in duplicate with 10 different concentrations of the inhibitors in clear-bottom microtiter plates (Wallac, Finland). A biotinylated peptide substrate, Biotin-Ala-Ala-Glu-Glu-Leu-Asp-Ser-Arg-Ala-Gly-Ser(PO3H2)-Pro-Gln-Leu (AstraZeneca, Lund), was added at a final concentration of 1 μM in an assay buffer containing 1 mU recombinant human GSK3β (Dundee University, UK), 12 mM morpholinepropanesulfonic acid (MOPS), pH 7.0, 0.3 mM EDTA, 0.01% β-mercaptorethanol, 0.004% Brij 35 (a […] detergent), 0.5% glycerol and 0.5 μg BSA/25 μl. The reaction was initiated by the addition of 0.04 μCi [γ-^33P]ATP (Amersham, UK) and unlabelled ATP at a final concentration of 1 μM and assay volume of 25 μl. After incubation for 20 minutes at room temperature, each reaction was terminated by the addition of 25 μl stop solution containing 5 mM EDTA, 50 μM ATP, 0.1% Triton X-100 and 0.25 mg streptavidin coated Scintillation Proximity Assay (SPA) beads (Amersham, UK). After 6 hours the radioactivity was determined in a liquid scintillation counter (1450 MicroBeta Trilux, Wallac). The inhibition curves were analysed by non-linear regression using GraphPad Prism, USA. […]

T1 sequence (P49841 whole entry): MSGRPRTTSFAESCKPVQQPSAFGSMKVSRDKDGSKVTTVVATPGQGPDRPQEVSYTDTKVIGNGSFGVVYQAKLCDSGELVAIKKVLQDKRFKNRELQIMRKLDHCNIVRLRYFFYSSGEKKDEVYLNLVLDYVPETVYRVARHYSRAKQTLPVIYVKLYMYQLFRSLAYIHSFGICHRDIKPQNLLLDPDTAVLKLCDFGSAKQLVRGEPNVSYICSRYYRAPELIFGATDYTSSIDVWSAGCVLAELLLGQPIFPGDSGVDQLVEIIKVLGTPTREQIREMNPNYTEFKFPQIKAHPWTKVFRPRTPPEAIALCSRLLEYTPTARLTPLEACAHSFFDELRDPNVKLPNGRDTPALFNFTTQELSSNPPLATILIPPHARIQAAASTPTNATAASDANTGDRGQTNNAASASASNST

Ki: 32 nM
Compound: N#Cc1ccc2[nH]c(O)c(-c3ccc(C(=O)O)cn3)c2c1 [compound of formula (I), 6-(5-cyano-2-hydroxy-1H-indol-3-yl)pyridine-3-carboxylic acid]
